# Read-outs that look alike come from different tables or passages of the source.
# What was measured:
# [1] = system: rice blast fungus (Pyricularia grisea); format: in vivo; conditions: flowable 5,000 ppm, 50 mL irrigation of nursery box, paddy rice; inoculated after 3 weeks; 7 days after inoculation
# [2] = system: rice sheath blight fungus (Thanatephorus cucumeris); test: Test Example 10: control effect against rice sheath blight by water surface application (flowable formulation); conditions: flowable 1,000 ppm, 1 mL dripped in paddy water, inoculated after 1 week, 7 days after inoculation
# [3] = system: rice blast fungus (Pyricularia grisea); format: in vivo; conditions: 5 g of granule on nursery box, paddy rice; inoculated after 3 weeks; 7 days after inoculation
# [4] = system: rice sheath blight fungus (Thanatephorus cucumeris); test: Test Example 6: control effect against rice sheath blight by box treatment (flowable formulation); conditions: flowable 5,000 ppm, 50 mL irrigation of nursery box, paddy rice; inoculated after 3 weeks; 7 days after inoculation
# [5] = system: rice sheath blight fungus (Thanatephorus cucumeris); test: Test Example 8: control effect against rice sheath blight by box treatment (granule); conditions: 5 g of granule on nursery box, paddy rice; inoculated after 3 weeks; 7 days after inoculation
# [6] = system: rice blast fungus (Pyricularia grisea); format: in vivo; conditions: flowable 1,000 ppm, 1 mL dripped in paddy water, inoculated after 1 week, 7 days after inoculation
# [7] = system: rice blast fungus (Pyricularia grisea); format: in vivo; conditions: flowable diluted to 100 ppm, 10 mL per pot foliage spray on paddy rice; inoculated day after; 7 days after inoculation
# [8] = system: barley powdery mildew fungus (Erysiphe graminis); test: Test Example 2: control effect against barley powdery mildew by foliage application; format: in vivo; conditions: wettable powder diluted to 100 ppm, 10 mL per pot foliage spray on barley; inoculated day after; 7 days after inoculation
structure (smiles),measurement,setting,value
"O=C(c1nccnc1C(F)(F)F)N(c1ccccc1-c1ccc(F)c(F)c1)c1snc(Cl)c1Cl [13-55, N-(3,4-Dichloroisothiazol-5-yl)-N-(3′,4′-difluorobiphen-2-yl)-3-(trifluoromethyl)pyrazine-2-carboxamide]","evaluation value of control effect (from control value, number of lesions)",[1],5
same,"evaluation value of control effect (from control value, lesion height)",[2],5
same,melting point,,136.1 to 139.2 °C
same,"evaluation value of control effect (from control value, number of lesions)",[3],5
same,"evaluation value of control effect (from control value, lesion height)",[4],5
same,"evaluation value of control effect (from control value, lesion height)",[5],5
same,"evaluation value of control effect (from control value, number of lesions)",[6],5
same,"evaluation value of control effect (from control value, number of lesions)",[7],4
same,"evaluation value of control effect (from control value, lesion area percentage)",[8],5

# Reference: US20210007356A1, “IMIDE DERIVATIVE AND FUNGICIDE CONTAINING SAID DERIVATIVE AS ACTIVE INGREDIENT” (HOKKO CHEMICAL INDUSTRY CO., LTD., priority 2018, published 2021)
